# Biological target: T1, human PAH with the R408W mutation (Homo sapiens, UniProt P00439, R408W)
# T1 construct: expressed in transfected cells
# T1 sequence (P00439 1-452 R408W): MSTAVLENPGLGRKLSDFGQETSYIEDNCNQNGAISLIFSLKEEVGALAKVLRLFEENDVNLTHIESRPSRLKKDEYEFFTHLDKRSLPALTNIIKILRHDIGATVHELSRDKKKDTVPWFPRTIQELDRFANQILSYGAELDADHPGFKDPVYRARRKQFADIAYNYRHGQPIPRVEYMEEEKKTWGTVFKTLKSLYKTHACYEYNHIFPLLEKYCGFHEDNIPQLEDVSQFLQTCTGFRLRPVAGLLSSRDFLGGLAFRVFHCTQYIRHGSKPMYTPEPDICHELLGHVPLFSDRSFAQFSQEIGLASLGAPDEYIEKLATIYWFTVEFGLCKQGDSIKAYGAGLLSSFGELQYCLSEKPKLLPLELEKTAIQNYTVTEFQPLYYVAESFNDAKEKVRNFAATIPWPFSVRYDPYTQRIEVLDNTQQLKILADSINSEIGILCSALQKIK
# Experiment: Cell Based Phenylalanine Flux Assay;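 also: after compound treatment, cells received sepiapterin plus isotope-labelled Phenylalanine for 4 hours, then labelled Tyrosine in the medium was quantified, 10-point 2-fold dilution series run in duplicate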
# Details: A375 cells expressing human R408W PAH; 24 hrs compound incubation; 13C-Tyrosine by LC-MS; average where tested multiple times; read-out: AC50
row,SMILES,AC50
1,"CC(C)(F)c1nnc(C(=O)N2CCc3[nH]cnc3[C@@H]2c2cc3c(C(F)F)cccn3n2)o1 [Example 1351, (R)-(4-(4-(difluoromethyl)pyrazolo[1,5-a]pyridin-2-yl)-6,7-dihydro-1H-imidazo[4,5-c]pyridin-5(4H)-yl)(5-(2-fluoropropan-2-yl)-1,3,4-oxadiazol-2-yl)methanone]",> 5000 nM
2,"Cn1ccc(-c2nnc(C(=O)N3CCc4[nH]cnc4[C@H]3c3cc4c(C(F)F)cccn4n3)o2)n1 [Example 1352, (S)-(4-(4-(difluoromethyl)pyrazolo[1,5-a]pyridin-2-yl)-6,7-dihydro-1H-imidazo[4,5-c]pyridin-5(4H)-yl)(5-(1-methyl-1H-pyrazol-3-yl)-1,3,4-oxadiazol-2-yl)methanone]",< 500 nM
3,"CC1(c2nnc(C(=O)N3CCc4[nH]cnc4[C@H]3c3cc4cccc(C(F)(F)F)n4n3)o2)CC1 [Example 1354, (S)-(5-(1-methylcyclopropyl)-1,3,4-oxadiazol-2-yl)(4-(7-(trifluoromethyl)pyrazolo[1,5-a]pyridin-2-yl)-6,7-dihydro-1H-imidazo[4,5-c]pyridin-5(4H)-yl)methanone]",500 to 1000 nM
4,"CC1(c2nnc(C(=O)N3CCc4[nH]cnc4[C@@H]3c3cc4cccc(C(F)(F)F)n4n3)o2)CC1 [Example 1355, (R)-(5-(1-methylcyclopropyl)-1,3,4-oxadiazol-2-yl)(4-(7-(trifluoromethyl)pyrazolo[1,5-a]pyridin-2-yl)-6,7-dihydro-1H-imidazo[4,5-c]pyridin-5(4H)-yl)methanone]",1000 to 5000 nM
5,"Cc1ncccc1-c1nnc(C(=O)N2CCc3[nH]cnc3[C@H]2c2cc3cccc(C)n3n2)o1 [Example 1358, (S)-(4-(7-methylpyrazolo[1,5-a]pyridin-2-yl)-6,7-dihydro-1H-imidazo[4,5-c]pyridin-5(4H)-yl)(5-(2-methylpyridin-3-yl)-1,3,4-oxadiazol-2-yl)methanone]",< 500 nM
6,"Cc1ncccc1-c1nnc(C(=O)N2CCc3[nH]cnc3[C@@H]2c2cc3cccc(C)n3n2)o1 [Example 1359, (R)-(4-(7-methylpyrazolo[1,5-a]pyridin-2-yl)-6,7-dihydro-1H-imidazo[4,5-c]pyridin-5(4H)-yl)(5-(2-methylpyridin-3-yl)-1,3,4-oxadiazol-2-yl)methanone]",1000 to 5000 nM
7,"O=C(c1nnc(-c2cnccn2)o1)N1CCc2[nH]cnc2[C@@H]1c1cc2cccc(C(F)(F)F)n2n1 [Example 1360, (R)-(5-(pyrazin-2-yl)-1,3,4-oxadiazol-2-yl)(4-(7-(trifluoromethyl)pyrazolo[1,5-a]pyridin-2-yl)-6,7-dihydro-1H-imidazo[4,5-c]pyridin-5(4H)-yl)methanone]",> 5000 nM
8,"O=C(c1nnc(-c2cnccn2)o1)N1CCc2[nH]cnc2[C@@H]1c1cc2ccccn2n1 [Example 1363, (R)-(5-(pyrazin-2-yl)-1,3,4-oxadiazol-2-yl)(4-(pyrazolo[1,5-a]pyridin-2-yl)-6,7-dihydro-1H-imidazo[4,5-c]pyridin-5(4H)-yl)methanone]",> 5000 nM
9,"Cc1c(-c2nnc(C(=O)N3CCc4[nH]cnc4[C@H]3c3cc4cccc(C(F)F)n4n3)o2)cnn1C [Example 1366, (S)-(4-(7-(difluoromethyl)pyrazolo[1,5-a]pyridin-2-yl)-6,7-dihydro-1H-imidazo[4,5-c]pyridin-5(4H)-yl)(5-(1,5-dimethyl-1H-pyrazol-4-yl)-1,3,4-oxadiazol-2-yl)methanone]",< 500 nM
10,"Cn1nc(C(F)F)cc1C(=O)N1CCc2[nH]cnc2[C@@H]1c1cc2c(Cl)cccn2n1 [Example 1369, (R)-(4-(4-chloropyrazolo[1,5-a]pyridin-2-yl)-6,7-dihydro-1H-imidazo(4,5-c]pyridin-5(4H)-yl)(3-(difluoromethyl)-1-methyl-1H-pyrazol-5-yl)methanone]",1000 to 5000 nM
11,"Cn1nc(C(F)F)cc1C(=O)N1CCc2[nH]cnc2[C@H]1c1cc2c(C(F)(F)F)cccn2n1 [Example 1370, (S)-(3-(difluoromethyl)-1-methyl-1H-pyrazol-5-yl)(4-(4-(trifluoromethyl)pyrazolo[1,5-a]pyridin-2-yl)-6,7-dihydro-1H-imidazo[4,5-c]pyridin-5(4H)-yl)methanone]",< 500 nM
12,"O=C(c1nnc(-c2cnn(C(F)F)c2)o1)N1CCc2[nH]cnc2[C@H]1c1cc2c(C(F)F)cccn2n1 [Example 1374, (S)-(5-(1-(difluoromethyl)-1H-pyrazol-4-yl)-1,3,4-oxadiazol-2-yl)(4-(4-(difluoromethyl)pyrazolo[1,5-a]pyridin-2-yl)-6,7-dihydro-1H-imidazo[4,5-c]pyridin-5(4H)-yl)methanone]",< 500 nM
13,"O=C(c1nnc(-c2cnn(C(F)F)c2)o1)N1CCc2[nH]cnc2[C@@H]1c1cc2c(C(F)F)cccn2n1 [Example 1375, (R)-(5-(1-(difluoromethyl)-1H-pyrazol-4-yl)-1,3,4-oxadiazol-2-yl)(4-(4-(difluoromethyl)pyrazolo[1,5-a]pyridin-2-yl)-6,7-dihydro-1H-imidazo[4,5-c]pyridin-5(4H)-yl)methanone]",> 5000 nM
14,"O=C(c1nnc(-c2ccn(C(F)F)n2)o1)N1CCc2[nH]cnc2[C@H]1c1cc2c(C(F)F)cccn2n1 [Example 1377, (S)-(5-(1-(difluoromethyl)-1H-pyrazol-3-yl)-1,3,4-oxadiazol-2-yl)(4-(4-(difluoromethyl)pyrazolo[1,5-a]pyridin-2-yl)-6,7-dihydro-1H-imidazo[4,5-c]pyridin-5(4H)-yl)methanone]",< 500 nM
15,"CC1(c2nnc(C(=O)N3CCc4[nH]cnc4[C@H]3c3cc4c(F)cccn4n3)o2)CC1 [Example 1378, (S)-(4-(4-fluoropyrazolo[1,5-a]pyridin-2-yl)-6,7-dihydro-1H-imidazo[4,5-c]pyridin-5(4H)-yl)(5-(1-methylcyclopropyl)-1,3,4-oxadiazol-2-yl)methanone]",< 500 nM
16,"CC1(c2nnc(C(=O)N3CCc4[nH]cnc4[C@@H]3c3cc4c(F)cccn4n3)o2)CC1 [Example 1379, (R)-(4-(4-fluoropyrazolo[1,5-a]pyridin-2-yl)-6,7-dihydro-1H-imidazo[4,5-c]pyridin-5(4H)-yl)(5-(1-methylcyclopropyl)-1,3,4-oxadiazol-2-yl)methanone]",> 5000 nM
17,"O=C(c1nnc(-c2ncccn2)o1)N1CCc2[nH]cnc2[C@@H]1c1cc2c(C(F)(F)F)cccn2n1 [Example 1380, (R)-(5-(pyrimidin-2-yl)-1,3,4-oxadiazol-2-yl)(4-(4-(trifluoromethyl)pyrazolo[1,5-a]pyridin-2-yl)-6,7-dihydro-1H-imidazo[4,5-c]pyridin-5(4H)-yl)methanone]",1000 to 5000 nM

# Results, then the molecule that gave them:
row,AC50,SMILES
1,500 to 1000 nM,"O=C(c1nnc(-c2ncccn2)o1)N1CCc2[nH]cnc2[C@H]1c1cc2c(C(F)(F)F)cccn2n1 [Example 1381, (S)-(5-(pyrimidin-2-yl)-1,3,4-oxadiazol-2-yl)(4-(4-(trifluoromethyl)pyrazolo[1,5-a]pyridin-2-yl)-6,7-dihydro-1H-imidazo[4,5-c]pyridin-5(4H)-yl)methanone]"
2,> 5000 nM,"Cc1cccc(-c2nnc(C(=O)N3CCc4[nH]cnc4[C@@H]3c3cc4ccccn4n3)o2)n1 [Example 1383, (R)-(5-(6-methylpyridin-2-yl)-1,3,4-oxadiazol-2-yl)(4-(pyrazolo[1,5-a]pyridin-2-yl)-6,7-dihydro-1H-imidazo[4,5-c]pyridin-5(4H)-yl)methanone]"
3,< 500 nM,"Cn1nc(C(F)F)cc1C(=O)N1CCc2[nH]cnc2[C@H]1c1cc2cccc(Cl)n2n1 [Example 1384, (S)-(4-(7-chloropyrazolo[1,5-a]pyridin-2-yl)-6,7-dihydro-1H-imidazo[4,5-c]pyridin-5(4H)-yl)(3-(difluoromethyl)-1-methyl-1H-pyrazol-5-yl)methanone]"
4,< 500 nM,"Cc1cccc2cc([C@@H]3c4nc[nH]c4CCN3C(=O)c3cc(C(F)F)nn3C)nn12 [Example 1388, (S)-(3-(difluoromethyl)-1-methyl-1H-pyrazol-5-yl)(4-(7-methylpyrazolo[1,5-a]pyridin-2-yl)-6,7-dihydro-1H-imidazo[4,5-c]pyridin-5(4H)-yl)methanone]"
5,> 5000 nM,"Cc1cccc2cc([C@H]3c4nc[nH]c4CCN3C(=O)c3cc(C(F)F)nn3C)nn12 [Example 1389, (R)-(3-(difluoromethyl)-1-methyl-1H-pyrazol-5-yl)(4-(7-methylpyrazolo[1,5-a]pyridin-2-yl)-6,7-dihydro-1H-imidazo[4,5-c]pyridin-5(4H)-yl)methanone]"
6,500 to 1000 nM,"O=C(c1nnc(C2CC2)o1)N1CCc2[nH]cnc2[C@H]1c1cc2cccc(C(F)F)n2n1 [Example 1390, (S)-(5-cyclopropyl-1,3,4-oxadiazol-2-yl)(4-(7-(difluoromethyl)pyrazolo[1,5-a]pyridin-2-yl)-6,7-dihydro-1H-imidazo[4,5-c]pyridin-5(4H)-yl)methanone]"
7,1000 to 5000 nM,"O=C(c1nnc(C2CC2)o1)N1CCc2[nH]cnc2[C@@H]1c1cc2cccc(C(F)F)n2n1 [Example 1391, (R)-(5-cyclopropyl-1,3,4-oxadiazol-2-yl)(4-(7-(difluoromethyl)pyrazolo[1,5-a]pyridin-2-yl)-6,7-dihydro-1H-imidazo[4,5-c]pyridin-5(4H)-yl)methanone]"
8,1000 to 5000 nM,"O=C(c1nnc(-c2ncccn2)o1)N1CCc2[nH]cnc2[C@@H]1c1cc2cccc(Cl)n2n1 [Example 1392, (R)-(4-(7-chloropyrazolo[1,5-a]pyridin-2-yl)-6,7-dihydro-1H-imidazo[4,5-c]pyridin-5(4H)-yl)(5-(pyrimidin-2-yl)-1,3,4-oxadiazol-2-yl)methanone]"

# Source: patent US20230365592A1 (Agios Pharmaceuticals, Inc., priority 2022, published 2023)
